Assay results from US7576103B2, “Tetralin and indane derivatives and uses thereof” (Roche Palo Alto LLC, priority 2004, dated 2009).

Assays:
[1] = target: T1, recombinant human 5-HT6 receptor (Homo sapiens, UniProt P50406); test: Radioligand binding, [3H]LSD competition, 5-HT6; conditions: membranes of HEK293 cells, pH 7.4, 37° C., read-out: pKi for the 5-HT6 receptor (converted)
T1 construct: expressed in transfected cells; cell membranes
Method: (§1) The binding activity of compounds of this invention in vitro was determined as follows. Duplicate determinations of 5-HT6 ligand affinity were made by competing for binding of [^3H]LSD in cell membranes derived from HEK293 cells stably expressing recombinant human 5-HT6 receptor. Duplicate determinations of 5-HT2A ligand affinity were made by competing for binding of [^3H]Ketanserin (3-(2-(4-(4-fluorobenzoyl)piperidinol)ethyl)-2,4(1H,3H)-quinazolinedione) in cell membranes derived from CHO-K1 cells stably expressing recombinant human 5-HT2A receptor. Membranes were prepared from HEK 293 cell lines by the method described by Monsma et al., Molecular Pharmacology, Vol. 43 pp. 320-327 (1993), and from CHO-K1 cell lines as described by Bonhaus et al., Br J Pharmacol. June 115(4):622-8 (1995).
(§2) For estimation of affinity at the 5-HT6 receptor, all determinations were made in assay buffer containing 50 mM Tris-HCl, 10 mM MgSO4, 0.5 mM EDTA, 1 mM ascorbic acid, pH 7.4 at 37° C., in a 250 microliter reaction volume. […]
(§3) Assay tubes containing [^3H] […] LSD or [^3H]Ketanserin were determined as radioactive counts per minute using Packard TopCount.
(§4) Displacement of [^3H]LSD or [^3H]Ketanserin from the binding sites was quantified by fitting concentration-binding data to a 4-parameter logistic equation: […]

[2] = target: T2, recombinant human 5-HT2A receptor (Homo sapiens, UniProt P28223); test: Radioligand binding, [3H]Ketanserin competition, 5-HT2A; conditions: membranes of CHO-K1 cells, pH 7.4, 32° C., read-out: pKi for the 5-HT2A receptor (converted)
T2 construct: expressed in transfected cells; cell membranes
Method: as §1, §2, §3, §4

T1 sequence (P50406 whole entry): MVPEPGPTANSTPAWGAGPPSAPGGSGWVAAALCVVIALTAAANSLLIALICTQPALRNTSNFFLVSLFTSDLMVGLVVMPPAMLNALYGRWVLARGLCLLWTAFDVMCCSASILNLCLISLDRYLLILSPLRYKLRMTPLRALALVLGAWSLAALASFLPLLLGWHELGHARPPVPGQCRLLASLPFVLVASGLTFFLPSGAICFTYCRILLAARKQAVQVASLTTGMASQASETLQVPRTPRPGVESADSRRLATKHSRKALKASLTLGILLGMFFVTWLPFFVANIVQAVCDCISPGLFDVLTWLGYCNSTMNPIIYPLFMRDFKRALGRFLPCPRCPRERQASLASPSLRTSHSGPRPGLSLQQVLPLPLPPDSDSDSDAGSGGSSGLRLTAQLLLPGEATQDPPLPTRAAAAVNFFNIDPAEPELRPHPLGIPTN
T2 sequence (P28223 whole entry): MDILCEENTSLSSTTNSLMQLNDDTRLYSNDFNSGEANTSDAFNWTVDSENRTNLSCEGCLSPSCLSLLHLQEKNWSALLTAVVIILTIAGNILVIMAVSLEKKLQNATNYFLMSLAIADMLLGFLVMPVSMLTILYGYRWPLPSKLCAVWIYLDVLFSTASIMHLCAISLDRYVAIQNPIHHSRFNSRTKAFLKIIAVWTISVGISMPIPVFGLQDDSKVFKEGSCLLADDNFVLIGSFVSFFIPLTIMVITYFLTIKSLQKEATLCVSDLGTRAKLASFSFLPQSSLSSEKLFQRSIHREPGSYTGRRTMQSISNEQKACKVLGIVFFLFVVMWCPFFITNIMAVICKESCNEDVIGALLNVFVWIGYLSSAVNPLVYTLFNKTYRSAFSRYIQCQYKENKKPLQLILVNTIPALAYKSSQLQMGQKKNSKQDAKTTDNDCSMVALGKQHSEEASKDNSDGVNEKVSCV

- Ki [1]: 0.00182 µM
- Ki [2]: 0.0617 µM
Structure (SMILES): CNCCOC1CCCc2cc(S(=O)(=O)c3ccccc3)ccc21 (centres unmarked) [Compound 5, [2-(6-Benzenesulfonyl-1,2,3,4-tetrahydro-naphthalen-1-yloxy)-ethyl]-methyl-amine]
